Test results from ChEMBL document CHEMBL1155467, “Semisynthesis and acetylcholinesterase inhibitory activity of stemofoline alkaloids and analogues” (J Nat Prod, 2010).
Converted amounts (≈) assume the structure as drawn.

Assay: Inhibition of AChE assessed as minimum drug level causing white zone of enzyme inhibition by TLC bioautography

Structure (SMILES) | MIC [nM]
CCCCC12C3CC4C5[C@@H](C)[C@](O)([C@]6(O)OC(=O)C(C)=C6OC)O[C@]5(O3)C1CCN42 (some centres not stated) | 1.19 (≈ 0.501 ng/mL)
COC1=C(C)C(=O)O/C1=C1\O[C@@]23OC4CC(C2[C@H]1C)N1CCC3[C@]41/C=C/[C@@H](C)O (some centres not stated) | 1.25 (≈ 0.501 ng/mL)
